Test results reported in US5760048A, “Alpha-mercaptoacrylic acid derivatives having calpain inhibitory activity” (Warner-Lambert Company, priority 1996, dated 1998).
pIC50: −log10 of the molar value. “Also recorded” adds a separate entry of the source. Where two headings read alike, the source gives them in different places. Square brackets hold non-standard residues; d marks the D form. Peptide text beside a SMILES is read from it. Nle = CCCC[C@H](N)C(=O)O

Key:
calpain I [1] = biological target: T1, calpain I (Homo sapiens, UniProt P07384); test: Assay of Calpain Activity (casein substrate, microplate, Coomassie blue); assay type: biochemical; design: Calpain I was purified from human erythrocytes; from tissue; host or cells: human erythrocytes
T1 sequence (P07384 1-714): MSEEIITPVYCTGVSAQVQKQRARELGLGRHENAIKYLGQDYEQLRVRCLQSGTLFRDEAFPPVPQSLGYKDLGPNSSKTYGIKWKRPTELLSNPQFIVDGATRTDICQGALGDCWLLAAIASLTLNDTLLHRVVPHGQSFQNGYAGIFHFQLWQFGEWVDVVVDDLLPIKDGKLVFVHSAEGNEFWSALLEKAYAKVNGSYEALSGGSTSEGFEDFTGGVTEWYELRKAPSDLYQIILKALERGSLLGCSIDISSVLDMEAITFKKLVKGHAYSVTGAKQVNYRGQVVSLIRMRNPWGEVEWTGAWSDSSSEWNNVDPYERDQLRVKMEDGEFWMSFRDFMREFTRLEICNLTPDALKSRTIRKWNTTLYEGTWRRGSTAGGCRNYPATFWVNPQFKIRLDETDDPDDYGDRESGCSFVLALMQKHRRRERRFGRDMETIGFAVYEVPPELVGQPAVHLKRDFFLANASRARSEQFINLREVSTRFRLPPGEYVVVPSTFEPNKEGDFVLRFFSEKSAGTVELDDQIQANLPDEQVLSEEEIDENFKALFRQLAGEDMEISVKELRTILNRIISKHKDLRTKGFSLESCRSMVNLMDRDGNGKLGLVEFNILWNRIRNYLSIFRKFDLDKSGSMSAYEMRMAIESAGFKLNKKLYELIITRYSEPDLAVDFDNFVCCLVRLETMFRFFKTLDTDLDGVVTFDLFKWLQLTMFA
T1 sequence (P04632 1-268 partner): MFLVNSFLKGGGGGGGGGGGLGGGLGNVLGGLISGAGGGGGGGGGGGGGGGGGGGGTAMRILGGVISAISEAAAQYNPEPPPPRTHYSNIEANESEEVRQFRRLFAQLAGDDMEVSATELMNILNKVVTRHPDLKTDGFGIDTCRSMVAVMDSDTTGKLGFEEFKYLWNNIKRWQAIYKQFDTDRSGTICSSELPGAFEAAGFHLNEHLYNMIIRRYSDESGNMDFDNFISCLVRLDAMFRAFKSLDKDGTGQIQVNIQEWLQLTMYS
Experimental: (§1) In 250 μL of reaction mixture, substrate casein (0.5 mg/mL) was incubated with 0.01 unit (80-120 ng) calpain I, 20 mM dithiothreitol (DTT), 50 mM Tris-HCl (pH 7.4 at 25° C.), and 4 mM CaCl2 at 25° C. for 60 minutes. Two 100-μL aliquots were taken for Coomassie blue binding analysis to quantify the remaining casein.
Calpain I was assayed as described (α-mercaptoacrylic acid). […] Inhibition of these proteases are presented as IC50.

calpain I [2] = biological target: T1, calpain I; test: Calpain inhibition after treatment with rabbit liver esterase; assay type: biochemical; design: casein substrate; settings: FIG. I
Experimental: as §1, with “Calpain I was purified from human erythrocytes as described by Wang K. K. W., Roufogalis B. D., Villalobo A., Arch Biochem Biophys 1988;267:317-327.Calpain activity was assayed in a 96-well microplate format (Buroker-Kilgore M., Wang K. K. W., Anal Biochem 1993;208:387-392). In” for “In”
Various concentrations of the compound of Example 6 (250 nM to 2.5 mM) were pretreated with 0.2 unit rabbit liver esterase (Sigma E9636) in 50 μL containing 50 mM Tris-HCl (pH 7.4 at 25° C.), 5 mM DTT at 25° C. for 60 minutes. The mixture was then tested for calpain inhibition with the calpain assay described above.
The esterase presumably hydrolyzed the only ester bond in the molecule, producing the free acid compound which is identical to the compound of Example 3.

smooth muscle cells = settings: cited from earlier work
restenosis = settings: in vivo; cited from earlier work
calpain I [3] = biological target: T1, calpain I; test: Casein Breakdown by calpain I (SDS-PAGE); assay type: biochemical; design: casein substrate; settings: 30 μM compound, 0.8 nM calpain I, all time points up to 120 minutes
Experimental: Casein (15 μM) was incubated with 0.8 nM calpain I, 15 mM DTT, 45 mM Tris-HCl (pH 7.4 at 25° C.) and in the presence or the absence of compound Example 3 (30 μM) for up to 120 minutes. Aliquots of the samples were taken at several time points and subjected to SDS-polyacrylamide gel electrophoresis (SDS-PAGE) as described by Laemmli U. K., Nature 1970;[…]. Casein and its fragments were visualized by Coomassie G250 staining of the gel.

[4] = test system: spectrin breakdown in rat cortical cell cultures; test: Spectrin Breakdown Measurement (immunoblot); assay type: cell-based; settings: NMDA-treated cortical cells, 4-hour post-NMDA
Experimental: Rat cortical cell cultures were treated with NMDA in the absence or presence of calpain inhibiting compounds as described in "Assay of LDH" above. At the end of the 4-hour post-NMDA incubation, cells were lysed with 300 μL buffer containing 20 mM Tris-HCL (pH 7.4 at 4° C.), 1% SDS, 5 mM EGTA, 5 mM EDTA, 1 mM DTT, and various protease inhibitors. Total cellular protein was precipitated by 100 μL of 100% trichloroacetic acid. The samples were centrifuged and the pelleted protein solubilized with 50 μl of 3M Tris base. […] The blots were then probed with rabbit antibrain spectrin antibody (primary antibody) followed by alkaline phosphatase-conjugated goat antirabbit immunoglobulin G antibody (secondary antibody). […] The SBP were quantified by densitometry (BioRad Model 620).

papain = biological target: T2, papain (Carica papaya, UniProt P00784); test: Selectivity: papain protease assay (casein substrate); assay type: biochemical; settings: Table II; read-out: Inhibitory Activity of Thiol-Acrylates, Papain (IC50)
T2 construct: purchased Sigma P3125; host or cells: papaya latex
T2 sequence (P00784 134-345): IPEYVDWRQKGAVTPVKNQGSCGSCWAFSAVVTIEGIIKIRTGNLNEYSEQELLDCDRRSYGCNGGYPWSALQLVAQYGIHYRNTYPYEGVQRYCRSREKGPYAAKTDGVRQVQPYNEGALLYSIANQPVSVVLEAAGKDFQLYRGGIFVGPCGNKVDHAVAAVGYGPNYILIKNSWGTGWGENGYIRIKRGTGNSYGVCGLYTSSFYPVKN
Experimental: (§2) Calpain I was assayed as described (α-mercaptoacrylic acid). Ten to 20 ng papain (papaya latex, Sigma, P3125), 1.25 μg trypsin (bovine pancreas, Sigma, T8003), and 5 μg thermolysin (Bacillus thermoproteolyticus, Sigma, P1512) were assayed using 0.5 mg/mL casein as substrate in the microplate format (250 μL reaction volume), essentially as described by Buroker-Kilgore M., Wang K. K. W., Anal Biochem 1993;208:387-392. Inhibition of these proteases are presented as IC50.

trypsin = biological target: T3, trypsin (Bos taurus, UniProt P00760); test: Selectivity: trypsin protease assay (casein substrate); assay type: biochemical, bovine; settings: Table II; read-out: Inhibitory Activity of Thiol-Acrylates, Trypsin (IC50)
T3 construct: purchased Sigma T8003; host or cells: bovine pancreas
T3 sequence (P00760 24-246): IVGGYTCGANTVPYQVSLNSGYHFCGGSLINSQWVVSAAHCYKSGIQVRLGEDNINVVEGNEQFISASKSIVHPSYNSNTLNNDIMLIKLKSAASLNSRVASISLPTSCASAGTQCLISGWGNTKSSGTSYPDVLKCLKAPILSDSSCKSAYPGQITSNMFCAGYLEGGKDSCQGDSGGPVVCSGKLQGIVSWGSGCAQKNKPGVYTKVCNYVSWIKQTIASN
Experimental: as §2

thermolysin = biological target: T4, thermolysin (Bacillus thermoproteolyticus, UniProt P00800); test: Selectivity: thermolysin protease assay (casein substrate); assay type: biochemical
T4 construct: purchased Sigma P1512; host or cells: Bacillus thermoproteolyticus
T4 sequence (P00800 233-548): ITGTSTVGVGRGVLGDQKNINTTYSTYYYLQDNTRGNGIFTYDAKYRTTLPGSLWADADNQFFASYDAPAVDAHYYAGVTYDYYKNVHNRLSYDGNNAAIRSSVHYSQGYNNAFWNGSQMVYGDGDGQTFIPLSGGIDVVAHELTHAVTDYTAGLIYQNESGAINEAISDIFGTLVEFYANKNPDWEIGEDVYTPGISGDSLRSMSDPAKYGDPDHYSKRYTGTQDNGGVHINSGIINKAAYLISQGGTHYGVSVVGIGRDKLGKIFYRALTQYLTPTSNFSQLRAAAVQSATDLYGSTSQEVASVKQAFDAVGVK
Experimental: as §2

[5] = test system: Fetal rat cortical cell cultures; test: Assay of Lactate Dehydrogenase (LDH): NMDA-induced LDH release; assay type: cell-based; settings: 500 μM NMDA; 200 μM calpain inhibiting compound; FIG. II
Experimental: Seventeen-day-old cultures were pretreated with 200 μM calpain inhibiting compound (when added) for 1 hour before treatment of 500 μM N-methyl-D-aspartate (NMDA) for 30 minutes (in the absence or the presence of the compound).

myocardiac infraction = settings: dogs, coronary reperfusion after acute myocardiac infraction; cited from earlier work
[6] = Table I, 4 mM CaCl2, pH 7.4, 25° C., 60 minutes, read-out: Inhibitory Activity Against Human Calpain I IC50

In the case of `CCOC(=O)/C(S)=C/c1ccc2ccccc2c1` [Example 6, Ethyl 2-Propenoic Acid, (Z)-2-mercapto-3-(2-naphthalenyl)-, Ethyl Ester], the pIC50 (calpain I [1]; [6]) was less than 3.30, the “inhibition of calpain upon preincubation with esterase (in words)” value (calpain I [2]; 0.2 unit rabbit liver esterase, 60 minutes) was “shows activity only after it is hydrolyzed by cellular esterase; also recorded: strong inhibition on calpain” and the “inhibition of calpain I without esterase (in words)” value (calpain I [2]; as high as 500 μM, no esterase) was “did not inhibit calpain I”.

In the case of `CCCC[C@@H](C=O)NC(=O)[C@H](CC(C)C)NC(=O)[C@H](CC(C)C)NC(C)=O` [calpain inhibitor I] (Ac-Leu-Leu-[Nle]-aldehyde), the “proliferation and migration of smooth muscle cells to the neoinitimal layer” value (smooth muscle cells) is listed as “controlling proliferation and migration of smooth muscle cells” and the inhibition of restenosis (restenosis) is listed as “inhibit restenosis”.

With `O=C(O)/C(S)=C/c1ccc2ccccc2c1` [Example 3, (Z)-2-Propenoic Acid, 2-mercapto-3-(7-naphthalenyl)] the “degradation of casein by calpain I (in words)” value (calpain I [3]) was “almost completely blocked the degradation of casein at all time points”, the “spectrin breakdown product (SBP) formation, 150 kDa and 145 kDa (in words)” value [4] was “partially blocked SBP formation” and the pIC50 (papain) was less than 3.70. The pIC50 (calpain I [1]; [6]) was 5.59, the pIC50 (calpain I [1]; Table II (selectivity), read-out: Inhibitory Activity of Thiol-Acrylates, Calpain (IC50)) was 5.62 and the pIC50 (trypsin) was less than 3.70. For the same compound, the pIC50 (thermolysin) was 3.40 and the “block of NMDA-induced LDH release (in words)” value [5] was “partially blocked”.

For `CC(C)CCNC(=O)[C@H](CC(C)C)NC(=O)[C@H]1O[C@@H]1C(=O)O` [Example E64c], the size of infract (myocardiac infraction) is given as “significantly reduce the size of infract”.
